Laboratory results as given in the supplement of paper PMC10307832.

Legend:
Test in all cases: relative viability (nuclei count vs DMSO), 5 days (fraction); higher = more cells survive
NCI-H1651 = system: NCI-H1651
Summary of the method: (§1)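 Lung cancer cell lines, seeded in 1536-well plates, were treated the following day by pin tool with a single drug or with five library-drug doses (not always all listed) in √10 steps on top of a fixed anchor-drug dose. Cells were fixed and nuclei stained in one step after 5 days, and nuclei were counted. Relative viability is the nuclei count for treated wells divided by that for vehicle wells, reported as medians of duplicate plates.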

NCI-H596 = system: NCI-H596
Summary of the method: as §1

NCI-H650 = system: NCI-H650
Summary of the method: as §1

NCI-H1944 = system: NCI-H1944
Summary of the method: as §1

NCI-H2023 = system: NCI-H2023
Summary of the method: as §1

NCI-H460 = system: NCI-H460
Summary of the method: as §1

ABC-1 = system: ABC-1
Summary of the method: as §1

LCLC-97TM1 = system: LCLC-97TM1
Summary of the method: as §1

NCI-H727 = system: NCI-H727
Summary of the method: as §1

H3255 = system: H3255
Summary of the method: as §1

CAL-12T = system: CAL-12T
Summary of the method: as §1

PC-3 [JPC-3] = system: PC-3 [JPC-3]
Summary of the method: as §1

BEN = system: BEN
Summary of the method: as §1

NCI-H441 = system: NCI-H441
Summary of the method: as §1

NCI-H661 = system: NCI-H661
Summary of the method: as §1

NCI-H1650 = system: NCI-H1650
Summary of the method: as §1

A-427 = system: A-427
Summary of the method: as §1

NCI-H2087 = system: NCI-H2087
Summary of the method: as §1

NCI-H520 = system: NCI-H520
Summary of the method: as §1

NCI-H1915 = system: NCI-H1915
Summary of the method: as §1

LC-2-ad = system: LC-2-ad
Summary of the method: as §1

201T = system: 201T
Summary of the method: as §1

SMILES: CC(=O)O[C@@]12CO[C@@H]1C[C@H](O)[C@@]1(C)C(=O)[C@H](O)C3=C(C)[C@@H](OC(=O)[C@H](O)[C@@H](NC(=O)OC(C)(C)C)c4ccccc4)C[C@@](O)([C@@H](OC(=O)c4ccccc4)[C@H]21)C3(C)C [Docetaxel] + CCNC(=O)c1noc(-c2cc(C(C)C)c(O)cc2O)c1-c1ccc(CN2CCOCC2)cc1 [Luminespib] (partner 0.01 µM)
- relative viability (NCI-H1651; first compound 0.0002 µM): 0.821
- relative viability (NCI-H1651; first compound 0.000632 µM): 0.842
- relative viability (NCI-H1651; first compound 0.002 µM): 0.258
- relative viability (NCI-H1651; first compound 0.006325 µM): 0.27
- relative viability (NCI-H1651; first compound 0.02 µM): 0.12
- relative viability (NCI-H596; first compound 0.0002 µM): 0.872
- relative viability (NCI-H596; first compound 0.000632 µM): 0.58
- relative viability (NCI-H596; first compound 0.002 µM): 0.713
- relative viability (NCI-H596; first compound 0.006325 µM): 0.36
- relative viability (NCI-H596; first compound 0.02 µM): 0.267
- relative viability (NCI-H650; first compound 0.0002 µM): 0.796
- relative viability (NCI-H650; first compound 0.000632 µM): 0.519
- relative viability (NCI-H650; first compound 0.002 µM): 0.212
- relative viability (NCI-H650; first compound 0.006325 µM): 0.18
- relative viability (NCI-H650; first compound 0.02 µM): 0.111
- relative viability (NCI-H1944; first compound 0.0002 µM): 0.724
- relative viability (NCI-H1944; first compound 0.000632 µM): 0.723
- relative viability (NCI-H1944; first compound 0.002 µM): 0.635
- relative viability (NCI-H1944; first compound 0.006325 µM): 0.249
- relative viability (NCI-H1944; first compound 0.02 µM): 0.114
- relative viability (NCI-H2023; first compound 0.0002 µM): 0.682
- relative viability (NCI-H2023; first compound 0.000632 µM): 0.346
- relative viability (NCI-H2023; first compound 0.002 µM): 0.113
- relative viability (NCI-H2023; first compound 0.006325 µM): 0.105
- relative viability (NCI-H2023; first compound 0.02 µM): 0.0645
- relative viability (NCI-H460; first compound 0.0002 µM): 0.032
- relative viability (NCI-H460; first compound 0.002 µM): 0.0279
- relative viability (NCI-H460; first compound 0.006325 µM): 0.025
- relative viability (NCI-H460; first compound 0.02 µM): 0.0187
- relative viability (ABC-1; first compound 0.0002 µM): 0.619
- relative viability (ABC-1; first compound 0.000632 µM): 0.704
- relative viability (ABC-1; first compound 0.002 µM): 0.231
- relative viability (ABC-1; first compound 0.006325 µM): 0.352
- relative viability (ABC-1; first compound 0.02 µM): 0.338
- relative viability (LCLC-97TM1; first compound 0.0002 µM): 0.71
- relative viability (LCLC-97TM1; first compound 0.000632 µM): 0.622
- relative viability (LCLC-97TM1; first compound 0.002 µM): 0.548
- relative viability (LCLC-97TM1; first compound 0.006325 µM): 0.167
- relative viability (LCLC-97TM1; first compound 0.02 µM): 0.106
- relative viability (NCI-H727; first compound 0.0002 µM): 0.753
- relative viability (NCI-H727; first compound 0.000632 µM): 0.419
- relative viability (NCI-H727; first compound 0.002 µM): 0.351
- relative viability (NCI-H727; first compound 0.006325 µM): 0.353
- relative viability (NCI-H727; first compound 0.02 µM): 0.308
- relative viability (H3255; first compound 0.0002 µM): 0.907
- relative viability (H3255; first compound 0.000632 µM): 1.12
- relative viability (H3255; first compound 0.002 µM): 0.755
- relative viability (H3255; first compound 0.006325 µM): 0.157
- relative viability (H3255; first compound 0.02 µM): 0.309
- relative viability (CAL-12T; first compound 0.0002 µM): 0.413
- relative viability (CAL-12T; first compound 0.000632 µM): 0.252
- relative viability (CAL-12T; first compound 0.002 µM): 0.199
- relative viability (CAL-12T; first compound 0.006325 µM): 0.168
- relative viability (CAL-12T; first compound 0.02 µM): 0.136
- relative viability (PC-3 [JPC-3]; first compound 0.0002 µM): 0.678
- relative viability (PC-3 [JPC-3]; first compound 0.000632 µM): 0.684
- relative viability (PC-3 [JPC-3]; first compound 0.002 µM): 0.5
- relative viability (PC-3 [JPC-3]; first compound 0.006325 µM): 0.223
- relative viability (PC-3 [JPC-3]; first compound 0.02 µM): 0.141
- relative viability (BEN; first compound 0.0002 µM): 0.0838
- relative viability (BEN; first compound 0.000632 µM): 0.377
- relative viability (BEN; first compound 0.002 µM): 0.373
- relative viability (BEN; first compound 0.006325 µM): 0.172
- relative viability (BEN; first compound 0.02 µM): 0.116
- relative viability (NCI-H441; first compound 0.0002 µM): 0.294
- relative viability (NCI-H441; first compound 0.000632 µM): 0.288
- relative viability (NCI-H441; first compound 0.002 µM): 0.3
- relative viability (NCI-H441; first compound 0.006325 µM): 0.257
- relative viability (NCI-H441; first compound 0.02 µM): 0.253
- relative viability (NCI-H661; first compound 0.0002 µM): 0.782
- relative viability (NCI-H661; first compound 0.000632 µM): 0.933
- relative viability (NCI-H661; first compound 0.002 µM): 0.707
- relative viability (NCI-H661; first compound 0.006325 µM): 0.432
- relative viability (NCI-H661; first compound 0.02 µM): 0.323
- relative viability (NCI-H1650; first compound 0.0002 µM): 0.22
- relative viability (NCI-H1650; first compound 0.000632 µM): 0.212
- relative viability (NCI-H1650; first compound 0.006325 µM): 0.199
- relative viability (NCI-H1650; first compound 0.02 µM): 0.193
- relative viability (A-427; first compound 0.0002 µM): 0.883
- relative viability (A-427; first compound 0.000632 µM): 0.832
- relative viability (A-427; first compound 0.002 µM): 0.507
- relative viability (A-427; first compound 0.006325 µM): 0.238
- relative viability (A-427; first compound 0.02 µM): 0.161
- relative viability (NCI-H2087; first compound 0.0002 µM): 0.166
- relative viability (NCI-H2087; first compound 0.000632 µM): 0.189
- relative viability (NCI-H2087; first compound 0.002 µM): 0.147
- relative viability (NCI-H2087; first compound 0.006325 µM): 0.168
- relative viability (NCI-H2087; first compound 0.02 µM): 0.124
- relative viability (NCI-H520; first compound 0.000632 µM): 0.23
- relative viability (NCI-H520; first compound 0.002 µM): 0.233
- relative viability (NCI-H520; first compound 0.006325 µM): 0.259
- relative viability (NCI-H520; first compound 0.02 µM): 0.207
- relative viability (NCI-H1915; first compound 0.0002 µM): 0.838
- relative viability (NCI-H1915; first compound 0.000632 µM): 0.796
- relative viability (NCI-H1915; first compound 0.002 µM): 0.467
- relative viability (NCI-H1915; first compound 0.006325 µM): 0.141
- relative viability (NCI-H1915; first compound 0.02 µM): 0.0759
- relative viability (LC-2-ad; first compound 0.0002 µM): 0.777
- relative viability (LC-2-ad; first compound 0.000632 µM): 0.544
- relative viability (LC-2-ad; first compound 0.002 µM): 0.503
- relative viability (LC-2-ad; first compound 0.006325 µM): 0.445
- relative viability (201T; first compound 0.0002 µM): 1.08
- relative viability (201T; first compound 0.000632 µM): 0.907
- relative viability (201T; first compound 0.002 µM): 0.8
- relative viability (201T; first compound 0.006325 µM): 0.485
- relative viability (201T; first compound 0.02 µM): 0.302
